Experimental data: PubChem BioAssay (NCI)
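A five-concentration, 48-hour dose response in 96-well plates underlies each endpoint, interpolated linearly between surrounding concentrations. At the TGI there is no net growth.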

Columns and labels:
Assay in all cases: DTP human tumour cell line panel, 48 h
[1] = system: A498 renal
[2] = system: HCT-116 colon
[3] = system: HT29 colon
[4] = system: K-562 leukemia
[5] = system: LOX IMVI melanoma
[6] = system: MALME-3M melanoma
[7] = system: MDA-MB-231 breast
[8] = system: MOLT-4 leukemia
[9] = system: NCI/ADR-RES ovarian

O=C(CCCCCCCCC(=O)N1C(=O)CC(=O)N(c2ccc(Cl)cc2)C1=S)N1C(=O)CC(=O)N(c2ccc(Cl)cc2)C1=S
TGI [1]: > 100 µM | TGI [2]: > 100 µM | TGI [3]: > 100 µM | TGI [4]: > 100 µM | TGI [5]: > 100 µM | TGI [6]: > 100 µM | TGI [7]: > 100 µM | TGI [8]: 75.6 µM | TGI [9]: > 100 µM

CN(Cc1ccccc1)C(=S)S
TGI [1]: > 100 µM | TGI [2]: 39.6 µM | TGI [3]: > 100 µM | TGI [4]: > 100 µM | TGI [5]: > 100 µM | TGI [6]: > 100 µM | TGI [7]: > 100 µM | TGI [8]: 84.6 µM | TGI [9]: > 100 µM

COc1cc(/C=C2\C(=O)N(c3ccc(Cl)cc3)C(c3ccccc3)S2(=O)=O)cc(OC)c1OC (stereo unspecified)
TGI [1]: > 100 µM | TGI [2]: > 100 µM | TGI [3]: > 100 µM | TGI [4]: > 100 µM | TGI [5]: > 100 µM | TGI [6]: > 100 µM | TGI [7]: > 100 µM | TGI [8]: > 100 µM | TGI [9]: > 100 µM

C[N+](C)([O-])C12CC3CC(CC(C3)C1)C2
TGI [1]: 67.7 µM | TGI [2]: 91.2 µM | TGI [3]: > 100 µM | TGI [4]: > 100 µM | TGI [5]: 63.8 µM | TGI [6]: > 100 µM | TGI [7]: > 100 µM | TGI [8]: > 100 µM | TGI [9]: > 100 µM

COc1ccc(/C=C2\N=C3N(Cc4ccccc4)C=C(N)N3C2=O)cc1
TGI [1]: > 100 µM | TGI [2]: > 100 µM | TGI [3]: > 100 µM | TGI [4]: > 100 µM | TGI [5]: > 100 µM | TGI [6]: > 100 µM | TGI [7]: > 100 µM | TGI [8]: > 100 µM | TGI [9]: > 100 µM

Nc1ncnc2c1ncn2CCCNO
TGI [1]: > 100 µM | TGI [2]: > 100 µM | TGI [3]: > 100 µM | TGI [4]: > 100 µM | TGI [5]: > 100 µM | TGI [6]: > 100 µM | TGI [7]: > 100 µM | TGI [8]: > 100 µM | TGI [9]: > 100 µM

CCOC(=O)CCC(NC(=O)c1ccc(NCc2ccc3nc(OC)c(OC)nc3c2)c2ccccc12)C(=O)OCC (stereo unspecified)
TGI [1]: > 100 µM | TGI [2]: > 100 µM | TGI [3]: > 100 µM | TGI [4]: > 100 µM | TGI [5]: > 100 µM | TGI [6]: > 100 µM | TGI [7]: > 100 µM | TGI [8]: > 100 µM | TGI [9]: > 100 µM

CCOC(=O)NC(Nc1ccc(C(=O)O)cc1)(C(F)(F)F)C(F)(F)F
TGI [1]: > 100 µM | TGI [2]: > 100 µM | TGI [3]: > 100 µM | TGI [4]: > 100 µM | TGI [5]: > 100 µM | TGI [6]: > 100 µM | TGI [7]: > 100 µM | TGI [8]: > 100 µM | TGI [9]: > 100 µM

CC(C)NC(=O)OCCN=C1c2ccccc2C(Br)C(Br)c2ccccc21 (stereo unspecified)
TGI [1]: 6.58 µM | TGI [2]: > 58.1 µM | TGI [3]: 25 µM | TGI [4]: 3.62 µM | TGI [5]: 10.1 µM | TGI [6]: 17.2 µM | TGI [7]: 30.5 µM | TGI [8]: 14.9 µM | TGI [9]: 41.7 µM
